Assay results: paper PMC5515844, “A new Prenylated Flavonoid induces G0/G1 arrest and apoptosis through p38/JNK MAPK pathways in Human Hepatocellular Carcinoma cells” (Scientific Reports, 2017)
Like-named read-outs stand apart in the source and are kept apart here.

Columns and labels:
MCF-7 = assay: MTT cytotoxicity assay; format: cell-based; conditions: Homo sapiens, MCF7, 48 h, mean ± SD
Procedure: (§1) HepG2 and Hep3B (human hepatoma cells), Bcap37 and MCF-7 (human breast cancer cells), TE-1 (human esophageal cancer cells), A549 (human lung carcinoma cells), U251 and U87 (human glioma cells), were cultured in Dulbecco’s modified Eagle’s medium (DMEM) supplemented with 10% fetal bovine serum (FBS) and 1% penicillin/streptomycin (10000 U/mL penicillin, 10000 μg/ml streptomycin). SH-SY5Y (human neuroblastoma cells), LO2 (human normal liver cell) were grown in RPMI 1640 containing 10% FBS and 100 µg/ml penicillin, 100 µg/ml streptomycin. HepG2, Hep3B, MCF-7, TE-1, A549, U87, U251 and SHSY5Y cells were obtained from the American Type Culture Collection (Manassas, VA, USA). Bcap37 and LO2 cells were purchased from the Cell Bank of Chinese Academy of Sciences (Shanghai, China). All cells were incubated in a humidified atmosphere containing 5% CO2 at 37 °C.
(§2) Cells seeded in 96-well plates with 5 × 10^3 cells/well were adhered overnight and incubated with vehicle control (DMSO) or diverse concentrations of compounds for 48 h. After treatment, 20 μL of MTT (5 mg/mL) was added to each well and incubated for another 4 h at 37 °C. Then, 150 μL of DMSO/well was appended after removed the supernatant to dissolve the formed purple formazan crystals and the color absorbance was measured at 490 nm using a microplate reader (Molecular Devices, Thermo, CA, USA). The inhibition rate (%) was calculated as (A490(control) − A490(drug groups))/(A490(control) − A490(blank)) × 100 and the value of IC50 (the concentration that caused 50% inhibition of cell viability) was determined using SPSS 20.0. This experiment was measured in triplicate, independently.

Bcap37 = assay: MTT cytotoxicity assay; format: cell-based; conditions: Homo sapiens, 48 h, mean ± SD
Procedure: as §1, §2

U87 = assay: MTT cytotoxicity assay; format: cell-based; conditions: Homo sapiens, U-87 MG, 48 h, mean ± SD
Procedure: as §1, §2

SH-SY5Y = assay: MTT cytotoxicity assay; format: cell-based; conditions: Homo sapiens, 48 h, mean ± SD
Procedure: as §1, §2

U251 = assay: MTT cytotoxicity assay; format: cell-based; conditions: Homo sapiens, U-251, 48 h, mean ± SD
Procedure: as §1, §2

TE-1 = assay: MTT cytotoxicity assay; format: cell-based; conditions: Homo sapiens, 48 h, mean ± SD
Procedure: as §1, §2

A549 = assay: MTT cytotoxicity assay; format: cell-based; conditions: Homo sapiens, 48 h, mean ± SD
Procedure: as §1, §2

LO2 = assay: MTT cytotoxicity assay, normal hepatic cells; format: cell-based; conditions: Homo sapiens, L02, 48 h, mean ± SD
Procedure: as §1, §2

[1] = system: nine human cancer cell lines and one normal hepatic cell line; assay: MTT cytotoxicity assay, summary over the cell line panel; format: cell-based
Procedure: as §1, §2

Hep3B = assay: MTT cytotoxicity assay; format: cell-based, human; conditions: for IC50: Homo sapiens, 48 h, mean ± SD; for effect of inhibitor on the reduction of cell viability by daphnegiravone D: pretreated with 10 μM inhibitor 1 h, then 2 μM daphnegiravone D 48 h
Procedure: as §1, §2

HepG2 = assay: MTT cytotoxicity assay; format: cell-based, human; conditions: for IC50: Homo sapiens, HepG2, MTT, 48 h, mean ± SD; for effect of inhibitor on the reduction of cell viability by daphnegiravone D: HepG2, MTT, pretreated with 10 μM inhibitor 1 h, then 10 μM daphnegiravone D 48 h
Procedure: as §1, §2

HepG2 cells = system: HepG2 cells; set-up: method as in PMID 25446044; conditions: cited from earlier work
[2] = most cancer cell lines, read-out: IC50 values against most cancer cell lines
[3] = most cell lines, read-out: IC50 values against most cell lines

Row | Molecule | IC50 (MCF-7) [µM] | IC50 (Bcap37) [µM] | IC50 (U87) [µM] | IC50 (SH-SY5Y) [µM] | IC50 (U251) [µM] | IC50 (TE-1) [µM] | IC50 (A549) [µM] | IC50 (LO2) [µM] | IC50 [1, 2] [µM] | IC50 (Hep3B) [µM] | IC50 (HepG2) [µM] | IC50 [1, 3] [µM] | effect of inhibitor on the reduction of cell viability by daphnegiravone D (Hep3B) | effect of inhibitor on the reduction of cell viability by daphnegiravone D (HepG2) | inhibitory effect on HepG2 cells (HepG2 cells)
1 | COc1c(-c2ccc(O)c(O)c2)oc2c(CC=C(C)C)c(O)c(CC=C(C)C)c(O)c2c1=O [Compound 2, broussoflavonol B] | 19.2 ± 1.76 | 42.4 ± 4.83 | 20.3 ± 2.08 | 13.5 ± 0.95 | 19.8 ± 1.53 | 20 ± 2.3 | 15 ± 1.21 | 22.4 ± 2.63 | ~20 | 14.2 ± 1.56 | 26.1 ± 1.89 |  |  |  | 
2 | CC(C)=CCc1c(-c2ccc(O)cc2O)oc2c3c(cc(O)c2c1=O)OC(C)(C)C=C3 [Compound 3, morusin] | 13.5 ± 2.51 | 31 ± 2.34 | 23.4 ± 2.79 | 45.4 ± 3.24 | 17.1 ± 2.22 | 22.8 ± 1.79 | 23.9 ± 1.97 | 28.2 ± 3.14 | ~20 | 14.2 ± 1.87 | 9.76 ± 0.94 |  |  |  | 
3 | COc1c(-c2cc(O)c3c(c2)C=CC(C)(C)O3)oc2c(CC=C(C)C)c(O)cc(O)c2c1=O [Compound 4, daphnegiravone A] | > 100 | > 100 | 71 ± 4.36 | 74.4 ± 4.87 | > 100 | > 100 | 66.8 ± 4.3 | > 100 |  | > 100 | 36.7 ± 2.21 | > 50 |  |  | 
4 | CC(C)=CCc1cc([C@@H]2CC(=O)c3ccc(O)cc3O2)c2c(c1O)OC(C)(C)CC2 [Compound 5, daphnegiravone C] | > 100 | > 100 | 49.9 ± 3.87 | 54.8 ± 3.72 | > 100 | > 100 | 20 ± 1.31 | > 100 |  | 55.4 ± 3.97 | > 100 | > 50 |  |  | 
5 | O=c1[nH]cc(F)c(=O)[nH]1 [Compound 5FU, 5-Fluorouracil, reference compound] | 42.3 ± 3.03 | 44.1 ± 3.82 | 20.2 ± 1.98 | 18.6 ± 1.38 | 42.6 ± 3.49 | 26.7 ± 2.01 | 31.9 ± 2.74 | 31.9 ± 3.78 |  | 10.4 ± 1.44 | 47.1 ± 3.68 |  |  |  | 
6 | C[S+]([O-])c1ccc(-c2nc(-c3ccncc3)c(-c3ccc(F)cc3)[nH]2)cc1 (centres unmarked) [SB203580, reference compound] |  |  |  |  |  |  |  |  |  |  |  |  | abolished | abolished | 
7 | Oc1c2ccccc2c2c3c(cccc13)N=N2 [SP600125, reference compound] |  |  |  |  |  |  |  |  |  |  |  |  | exacerbated | exacerbated | 
8 | Kurzphenol C |  |  |  |  |  |  |  |  |  |  |  |  |  |  | weak inhibitory effect
